Test results reported in paper PMC2116148 (The Journal of Cell Biology, 1990).

What was measured:
Type in all cases: cell-based, mouse
M4 melanoma cells [1] = conditions: even at the highest concentrations tested (Fig. 7, up to 500 μg/ml)
[2] = system: K1735 M4 murine melanoma cell line; assay: Cell adhesion and spreading assay on peptide- or protein-coated Immulon 1 plates
M4 melanoma cells [3] = conditions: filters coated with type IV collagen; soluble control peptide (Fig. 3c)

Substance	cell motility through coated filters (M4 melanoma cells [1])	melanoma cell spreading compared with peptide IV-H1 ([2]; all peptide concentrations (5-500 μg/ml), all time points (20-90 min) (Fig. 6))	melanoma cell adhesion on alanyl-substituted peptide compared with peptide IV-H1 ([2]; coated surfaces, up to 500 μg/ml (Fig. 5))	promotion of melanoma cell adhesion or spreading ([2]; control peptide, coated surface)	effect on type IV collagen-mediated cell motility (M4 melanoma cells [3])
GVKGDKGNAGWAGAA(Y) [peptide IV-H1A]	not observed	decreased ability to spread	nearly the same extent		
GVPGKDGQAGQPGQP(Y) [peptide 17]				does not promote	no effect
